Results on 30 compounds are retold here after US11046696B2, “Fused pyrimidine compound or salt thereof” (TAIHO PHARMACEUTICAL CO., LTD., priority 2016, dated 2021).

This data set in a line: Evaluation of stability in liver microsome. To be noted: mouse liver microsome, 1 μM, 37° C. for 30 minutes.
Description: Solutions of the test compounds in DMSO/acetonitrile (the final concentration of each test compound was 1 μM, the final concentration of DMSO was 0.01%, and the final concentration of acetonitrile was 1%) were individually added to a liver microsome mixture solution (mouse liver microsome with a final concentration of 0.25 mg/mL, a potassium phosphate buffer with a final concentration of 100 mM, and magnesium chloride with a final concentration of 3 mM), and each mixture was pre-incubated at 37° C. for 5 minutes. […] After incubation at 37° C. for 30 minutes, a double amount of ethanol was added thereto to terminate the reaction, thereby obtaining post-reaction samples. A double amount of ethanol was added to each of the remaining mixture solutions, and a NADPH-generating system was further added thereto, thereby obtaining pre-reaction samples. The pre-reaction samples and post-reaction samples were centrifuged at 2000×g, and their supernatant was filtered through a glass filter. Each filtrate was then introduced into LC-MS/MS, and MS/MS peaks of the test compounds were detected. From the ratio of the post-reaction MS/MS peak to the pre-reaction MS/MS peak of the test compounds, the percentage of the remaining test compounds (remaining %) was calculated.
As for `COCc1ccc(NC(=O)c2c(C#CC3CCOCC3)n(C3(C)CC3)c3ncnc(N)c23)cc1F` [Example 205, 4-amino-N-(3-fluoro-4-(methoxymethyl)phenyl)-7-(1-methylcyclopropyl)-6-((tetrahydro-2H-pyran-4-yl)ethynyl)-7H-pyrrolo[2,3-d]pyrimidine-5-carboxamide], the “Remaining (%)” value came out at 58%.

As for `COCc1ccc(NC(=O)c2cn(C(C)(C)CF)c3ncnc(N)c23)cc1` [Example 26, 4-amino-7-(1-fluoro-2-methylpropan-2-yl)-N-(4-(methoxymethyl)phenyl)-7H-pyrrolo[2,3-d]pyrimidine-5-carboxamide], the “Remaining (%)” value stood at 60%.

For `COCc1ccc(NC(=O)c2c(C#CCC3CCCCC3)n(C3(C)CC3)c3ncnc(N)c23)cc1` [Example 199, 4-amino-6-(3-cyclohexylprop-1-yn-1-yl)-N-(4-(methoxymethyl)phenyl)-7-(1-methylcyclopropyl)-7H-pyrrolo[2,3-d]pyrimidine-5-carboxamide], the “Remaining (%)” value worked out at 80%.

Regarding `COCc1ccc(NC(=O)c2c(OCC3CCCO3)n(C3(C)CC3)c3ncnc(N)c23)cc1` (stereo not drawn) [Example 135, 4-amino-N-(4-(methoxymethyl)phenyl)-7-(1-methylcyclopropyl)-6-((tetrahydrofuran-2-yl)methoxy)-7H-pyrrolo[2,3-d]pyrimidine-5-carboxamide], the “Remaining (%)” value was 67%.

In the case of `COCc1ccc(NC(=O)c2cn(C(C)(C)C)c3ncnc(N)c23)cc1F` [Example 30, 4-amino-7-(tert-butyl)-N-(3-fluoro-4-(methoxymethyl)phenyl)-7H-pyrrolo[2,3-d]pyrimidine-5-carboxamide], the “Remaining (%)” value was 54%.

Turning to `COCc1ccc(NC(=O)c2c(Br)n(C3(C)CC3)c3ncnc(N)c23)cc1` [Example 55, 4-amino-6-bromo-N-[4-(methoxymethyl)phenyl]-7-(1-methylcyclopropyl)-7H-pyrrolo[2,3-d]pyrimidine-5-carboxamide], the “Remaining (%)” value is on record as 56%.

As for `COCc1ccc(NC(=O)c2c(OC[C@@H]3CCCO3)n(C3(C)CC3)c3ncnc(N)c23)cc1` [Example 97, (S)-4-amino-N-(4-(methoxymethyl)phenyl)-7-(1-methylcyclopropyl)-6-((tetrahydrofuran-2-yl)methoxy)-7H-pyrrolo[2,3-d]pyrimidine-5-carboxamide], the “Remaining (%)” value was determined as 70%.

On to `COCc1ccc(NC(=O)c2c(-c3cn[nH]c3)n(C3(C)CC3)c3ncnc(N)c23)cc1` [Example 167, 4-amino-N-(4-(methoxymethyl)phenyl)-7-(1-methylcyclopropyl)-6-(1H-pyrazol-4-yl)-7H-pyrrolo[2,3-d]pyrimidine-5-carboxamide], for which the “Remaining (%)” value came out at 80%.

For `COCc1ccc(NC(=O)c2c(C#Cc3cccnc3)n(C3(C)CC3)c3ncnc(N)c23)cc1` [Example 94, 4-amino-N-[4-(methoxymethyl)phenyl]-7-(1-methylcyclopropyl)-6-(pyridin-3-ylethynyl)-7H-pyrrolo[2,3-d]pyrimidine-5-carboxamide], the “Remaining (%)” value is recorded as 60%.

For `COCc1ccc(NC(=O)c2c(OCC(C)C)n(C3(C)CC3)c3ncnc(N)c23)cc1` [Example 99, 4-amino-6-isobutoxy-N-(4-(methoxymethyl)phenyl)-7-(1-methylcyclopropyl)-7H-pyrrolo[2,3-d]pyrimidine-5-carboxamide], the “Remaining (%)” value is reported as 51%.

With `COCc1ccc(NC(=O)c2c(C3=CCOCC3)n(C3(C)CC3)c3ncnc(N)c23)cc1` [Example 203, 4-amino-6-(3,6-dihydro-2H-pyran-4-yl)-N-(4-(methoxymethyl)phenyl)-7-(1-methylcyclopropyl)-7H-pyrrolo[2,3-d]pyrimidine-5-carboxamide], the “Remaining (%)” value came to 68%.

For `COCc1ccc(NC(=O)c2c(C#Cc3ccc4c(c3)NCCO4)n(C3(C)CC3)c3ncnc(N)c23)cc1` [Example 158, 4-amino-6-((3,4-dihydro-2H-benzo[b][1,4]oxazin-6-yl)ethynyl)-N-(4-(methoxymethyl)phenyl)-7-(1-methylcyclopropyl)-7H-pyrrolo[2,3-d]pyrimidine-5-carboxamide], the “Remaining (%)” value amounted to 85%.

With `COCc1ccc(NC(=O)c2c(SC)n(C3(C)CC3)c3ncnc(N)c23)cc1` [Example 133, 4-amino-N-(4-methoxymethyl)phenyl-7-(1-methylcyclopropyl)-6-(methylthio)-7H-pyrrolo[2,3-d]pyrimidine-5-carboxamide], the “Remaining (%)” value was 70%.

Consider `COCc1ccc(NC(=O)c2c(C#CC3CCN(C)CC3)n(C3(C)CC3)c3ncnc(N)c23)cc1` [Example 183, 4-amino-N-(4-(methoxymethyl)phenyl)-7-(1-methylcyclopropyl)-6-((1-methylpiperidin-4-yl)ethynyl)-7H-pyrrolo[2,3-d]pyrimidine-5-carboxamide], for which the “Remaining (%)” value amounted to 77%.

`CCOc1c(C(=O)Nc2ccc(COC)cc2)c2c(N)ncnc2n1C1(C)CC1` [Example 127, 4-amino-6-ethoxy-N-(4-(methoxymethyl)phenyl)-7-(1-methylcyclopropyl)-7H-pyrrolo[2,3-d]pyrimidine-5-carboxamide]: the “Remaining (%)” value is recorded as 70%.

Consider `COCc1ccc(NC(=O)c2c(OC[C@H]3CCCO3)n(C3(C)CC3)c3ncnc(N)c23)cc1` [Example 89, (R)-4-amino-N-[4-(methoxymethyl)phenyl]-7-(1-methylcyclopropyl)-6-((tetrahydrofuran-2-yl)methoxy)-7H-pyrrolo[2,3-d]pyrimidine-5-carboxamide], for which the “Remaining (%)” value is 69%.

For `CCOc1c(C(=O)Nc2ccc(-c3ccco3)cc2)c2c(N)ncnc2n1C1(C)CC1` [Example 116, 4-amino-6-ethoxy-N-(4-(furan-2-yl)phenyl)-7-(1-methylcyclopropyl)-7H-pyrrolo[2,3-d]pyrimidine-5-carboxamide], the “Remaining (%)” value is listed as 55%.

Consider `COCc1ccc(NC(=O)c2c(C#Cc3cccc(NCc4ccncc4)c3)n(C3(C)CC3)c3ncnc(N)c23)cc1` [Example 122, 4-amino-N-(4-(methoxymethyl)phenyl)-7-(1-methylcyclopropyl)-6-((3-((pyridin-4-ylmethyl)amino)phenyl)ethynyl)-7H-pyrrolo[2,3-d]pyrimidine-5-carboxamide], for which the “Remaining (%)” value amounted to 62%.

Consider `COCc1ccc(NC(=O)c2c(C#CCN3CCOCC3)n(C3(C)CC3)c3ncnc(N)c23)cc1F` [Example 206, 4-amino-N-(3-fluoro-4-(methoxymethyl)phenyl)-7-(1-methylcyclopropyl)-6-(3-morpholinoprop-1-yn-1-yl)-7H-pyrrolo[2,3-d]pyrimidine-5-carboxamide], for which the “Remaining (%)” value is reported as 77%.

Turning to `COCc1ccc(NC(=O)c2c(OCC3CCCC3)n(C3(C)CC3)c3ncnc(N)c23)cc1` [Example 140, 4-amino-6-(cyclopentylmethoxy)-N-(4-(methoxymethyl)phenyl)-7-(1-methylcyclopropyl)-7H-pyrrolo[2,3-d] pyrimidine-5-carboxamide], the “Remaining (%)” value worked out at 52%.

In the case of `COCc1ccc(NC(=O)c2c(-c3ccc(CO)nc3)n(C3(C)CC3)c3ncnc(N)c23)cc1` [Example 179, 4-amino-6-(6-(hydroxymethyl)pyridin-3-yl)-N-(4-(methoxymethyl)phenyl)-7-(1-methylcyclopropyl)-7H-pyrrolo[2,3-d]pyrimidine-5-carboxamide], the “Remaining (%)” value amounted to 85%.

As to `COCc1ccc(NC(=O)c2c(C#CC3(O)CCOCC3)n(C3(C)CC3)c3ncnc(N)c23)cc1` [Example 185, 4-amino-6-((4-hydroxytetrahydro-2H-pyran4-yl)ethynyl)-N-(4-(methoxymethyl)phenyl)-7-(1-methylcyclopropyl)-7H-pyrrolo[2,3-d]pyrimidine-5-carboxamide], the “Remaining (%)” value stood at 80%.

As for `COCc1ccc(NC(=O)c2c(C#Cc3cccc(F)c3)n(C3(C)CC3)c3ncnc(N)c23)cc1` [Example 130, 4-amino-6-((3-fluorophenyl)ethynyl)-N-(4-(methoxymethyl)phenyl)-7-(1-methylcyclopropyl)-7H-pyrrolo[2,3-d]pyrimidine-5-carboxamide], the “Remaining (%)” value turned out to be 84%.

For the compound `COCc1ccc(NC(=O)c2c(OCC3CCOCC3)n(C3(C)CC3)c3ncnc(N)c23)cc1` [Example 141, 4-amino-N-(4-(methoxymethyl)phenyl)-7-(1-methylcyclopropyl)-6-((tetrahydro-2H-pyran-4-yl)methoxy)-7H-pyrrolo[2,3-d]pyrimidine-5-carboxamide], the “Remaining (%)” value was 68%.

In the case of `COCc1ccc(NC(=O)c2c(C#Cc3ccsc3)n(C3(C)CC3)c3ncnc(N)c23)cc1` [Example 176, 4-amino-N-(4-(methoxymethyl)phenyl)-7-(1-methylcyclopropyl)-6-(thiophen-3-ylethynyl)-7H-pyrrolo[2,3-d]pyrimidine-5-carboxamide], the “Remaining (%)” value is 70%.

Consider `Nc1ncnc2c1c(C(=O)Nc1ccc(Oc3ccccc3)cc1)cn2C1CCCC1` [Compound 2 of Comparative Examples, 4-amino-7-cyclopentyl-N-(4-phenoxyphenyl)-7H-pyrrolo[2,3-d]pyrimidine-5-carboxamide, reference compound], for which the “Remaining (%)” value came to 0%.

On to `COCc1ccc(NC(=O)c2c(OC)n(C3(C)CC3)c3ncnc(N)c23)cc1` [Example 57, 4-amino-6-methoxy-N-[4-(methoxymethyl)phenyl]-7-(1-methylcyclopropyl)-7H-pyrrolo[2,3-d]pyrimidine-5-carboxamide], for which the “Remaining (%)” value came to 86%.

As to `COCc1ccc(NC(=O)c2c(C#Cc3ccc(OC)nc3)n(C3(C)CC3)c3ncnc(N)c23)cc1` [Example 192, 4-amino-N-(4-(methoxymethyl)phenyl)-6-((6-methoxypyridin-3-yl)ethynyl)-7-(1-methylcyclopropyl)-7H-pyrrolo[2,3-d]pyrimidine-5-carboxamide], the “Remaining (%)” value turned out to be 79%.

`[2H]C([2H])([2H])OCc1ccc(NC(=O)c2cn(C(C)(C)C)c3ncnc(N)c23)cc1` [Example 35, 4-amino-7-(tert-butyl)-N-(4-((methoxy-d3)-methyl)phenyl)-7H-pyrrolo[2,3-d]pyrimidine-5-carboxamide]: the “Remaining (%)” value is reported as 58%.

Consider `CCc1c(C(=O)Nc2ccc(COC)cc2)c2c(N)ncnc2n1C1(C)CC1` [Example 207, 4-amino-6-ethyl-N-(4-(methoxymethyl)phenyl)-7-(1-methylcyclopropyl)-7H-pyrrolo[2,3-d]pyrimidine-5-carboxamide], for which the “Remaining (%)” value is on record as 72%.
